The values below come from patent US20220062278A1, “SMALL MOLECULE INHIBITORS OF THE ANDROGEN RECEPTOR ACTIVITY AND/OR EXPRESSION AND USES THEREOF” (Arizona Board of Regents on Behalf of the Univeristy of …, priority 2018, published 2022).

The first assay has as its target T1, AR (Homo sapiens, UniProt P10275).
T1 sequence (P10275 669-920 limits assumed): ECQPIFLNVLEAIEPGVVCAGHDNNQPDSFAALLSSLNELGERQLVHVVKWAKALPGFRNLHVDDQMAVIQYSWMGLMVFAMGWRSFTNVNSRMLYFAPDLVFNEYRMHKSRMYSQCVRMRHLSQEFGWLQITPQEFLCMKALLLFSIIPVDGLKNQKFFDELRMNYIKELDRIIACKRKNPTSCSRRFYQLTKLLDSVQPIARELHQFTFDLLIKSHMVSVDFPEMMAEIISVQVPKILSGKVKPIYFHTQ
Kind of assay: GeneBlazer assay, inhibition against AR activity. The assay is classed as cell-based. The note with it: 10 uM; Table II. An excerpt: Tables II, III and IV show % inhibition against AR activity at 10 μm within a GeneBlazer assay, and IC50 values (nM) in GeneBlazer assay.
For the molecule `CCCCn1nnnc1C(c1cccc(O)c1)N1CCN(c2c(Cl)cncc2Cl)CC1` (centres unmarked) [Compound 1, 3-((1-butyl-1H-tetrazol-5-yl)(4-(3,5-dichloropyridin-4-yl)piperazin-1-yl)methyl)phenol], the inhibition at 10 µM was found to be 81.5%. Same read-out and setting: the same measure for `CC(C)(C)n1nnnc1C(c1cc2ccccc2o1)N1CCN(c2c(Cl)cncc2Cl)CC1` (centres unmarked) [Compound 2, 1-(benzofuran-2-yl(1-(tert-butyl)-1H-tetrazol-5-yl)methyl)-4-(3,5-dichloropyridin-4-yl)piperazine]: 108%; for `CCCCn1nnnc1C(c1ccnc2ccccc12)N1CCN(c2c(Cl)cncc2Cl)CC1` (centres unmarked) [Compound 3, 4-((1-butyl-1H-tetrazol-5-yl)(4-(3,5-dichloropyridin-4-yl)piperazin-1-yl)methyl)quinoline]: 110%.

Turning to `CCCCn1nnnc1C(c1ccccc1)N1CCN(c2c(Cl)cncc2Cl)CC1` (centres unmarked) [Compound 4, 1-((1-butyl-1H-tetrazol-5-yl)(phenyl)methyl)-4-(3,5-dichloropyridin-4-yl)piperazine], the inhibition at 10 µM stood at 101%.

For `CCCCn1nnnc1CN1CCN(c2c(Cl)cncc2Cl)CC1` [Compound 5, 1-((1-butyl-1H-tetrazol-5-yl)methyl)-4-(3,5-dichloropyridin-4-yl)piperazine], the inhibition at 10 µM came to 95.2%. On to `CCCCn1nnnc1C(C)N1CCN(c2c(Cl)cncc2Cl)CC1` (centres unmarked) [Compound 6, 1-(1-(1-butyl-1H-tetrazol-5-yl)ethyl)-4-(3,5-dichloropyridin-4-yl)piperazine], for which the inhibition at 10 µM came to 95.3%. The same measure, in the same setting: under `CCCCn1nnnc1C(c1cccc(OC)c1)N1CCN(c2c(Cl)cncc2Cl)CC1` (centres unmarked) [Compound 7, 1-((1-butyl-1H-tetrazol-5-yl)(3-methoxyphenyl)methyl)-4-(3,5-dichloropyridin-4-yl)piperazine] stands 108%; under `CCCCn1nnnc1C(c1cccc(F)c1)N1CCN(c2c(Cl)cncc2Cl)CC1` (centres unmarked) [Compound 8], 95.3%; under `CC(C)(C)n1nnnc1C(c1cccs1)N1CCN(c2c(Cl)cncc2Cl)CC1` (centres unmarked) [Compound 9], 104%. The same measure, in the same setting: under `CCCCn1nnnc1C(c1cccs1)N1CCN(c2c(Cl)cncc2Cl)CC1` (centres unmarked) [Compound 10, 1-((1-butyl-1H-tetrazol-5-yl)(thiophen-2-yl)methyl)-4-(3,5-dichloropyridin-4-yl)piperazine] stands 98.2%. As to `CCCCn1nnnc1C(c1ccc2c(c1)OCO2)N1CCN(c2c(Cl)cncc2Cl)CC1` (centres unmarked) [Compound 11, 1-(benzo[d][1,3]dioxol-5-yl(1-butyl-1H-tetrazol-5-yl)methyl)-4-(3,5-dichloropyridin-4-yl)piperazine], the inhibition at 10 µM came to 98.4%. Regarding `CCCCn1nnnc1C(c1ccc2[nH]ccc2c1)N1CCN(c2c(Cl)cncc2Cl)CC1` (centres unmarked) [Compound 12, 5-((1-butyl-1H-tetrazol-5-yl)(4-(3,5-dichloropyridin-4-yl)piperazin-1-yl)methyl)-1H-indole], the inhibition at 10 µM was found to be 93.9%. In the case of `CC(C)n1nnnc1C(c1cccc(O)c1)N1CCN(c2c(Cl)cncc2Cl)CC1` (centres unmarked) [Compound 15, 3-((4-(3,5-dichloropyridin-4-yl)piperazin-1-yl)(1-isopropyl-1H-tetrazol-5-yl)methyl)phenol], the inhibition at 10 µM was 86%.

Consider `CC(C)(C)n1nnnc1C(c1cccc(O)c1)N1CCN(c2c(Cl)cncc2Cl)CC1` (centres unmarked) [Compound 16, 3-((1-(tert-butyl)-1H-tetrazol-5-yl)(4-(3,5-dichloropyridin-4-yl)piperazin-1-yl)methyl)phenol], for which the inhibition at 10 µM was determined as 102%. Take `Oc1cccc(C(c2nnnn2C2CCCC2)N2CCN(c3c(Cl)cncc3Cl)CC2)c1` (centres unmarked) [Compound 17, 3-((1-cyclopentyl-1H-tetrazol-5-yl)(4-(3,5-dichloropyridin-4-yl)piperazin-1-yl)methyl)phenol]: the inhibition at 10 µM stood at 108%. Turning to `Oc1cccc(C(c2nnnn2C2CCCCC2)N2CCN(c3c(Cl)cncc3Cl)CC2)c1` (centres unmarked) [Compound 18, 3-((1-cyclohexyl-1H-tetrazol-5-yl)(4-(3,5-dichloropyridin-4-yl)piperazin-1-yl)methyl)phenol], the inhibition at 10 µM was found to be 110%.

Turning to `Oc1cccc(C(c2nnnn2Cc2ccccc2)N2CCN(c3c(Cl)cncc3Cl)CC2)c1` (centres unmarked) [Compound 19, 3-((1-benzyl-1H-tetrazol-5-yl)(4-(3,5-dichloropyridin-4-yl)piperazin-1-yl)methyl)phenol], the inhibition at 10 µM stood at 120%. Regarding `Cc1cccc(C)c1-n1nnnc1C(c1cccc(O)c1)N1CCN(c2c(Cl)cncc2Cl)CC1` (centres unmarked) [Compound 20, 3-((4-(3,5-dichloropyridin-4-yl)piperazin-1-yl)(1-(2,6-dimethylphenyl)-1H-tetrazol-5-yl)methyl)phenol], the inhibition at 10 µM turned out to be 111%. As for `CCCCNC(=O)C(c1cccc(O)c1)N1CCN(c2c(Cl)cncc2Cl)CC1` (centres unmarked) [Compound 21, N-butyl-2-(4-(3,5-dichloropyridin-4-yl)piperazin-1-yl)-2-(3-hydroxyphenyl)acetamide], the inhibition at 10 µM turned out to be 93%.

`Oc1cccc(CN2CCN(c3c(Cl)cncc3Cl)CC2)c1` [Compound 22, 3-((4-(3,5-dichloropyridin-4-yl)piperazin-1-yl)methyl)phenol]: the inhibition at 10 µM came to 68.1%. For `Clc1cncc(Cl)c1N1CCN(Cc2cc3ccccc3o2)CC1` [Compound 23, 1-(benzofuran-2-ylmethyl)-4-(3,5-dichloropyridin-4-yl)piperazine], the inhibition at 10 µM was determined as 101%. For `CCCCn1nnnc1C(c1cccc(O)c1)N1CCN(c2c(Cl)cccc2Cl)CC1` (centres unmarked) [Compound 25, 3-((1-butyl-1H-tetrazol-5-yl)(4-(2,6-dichlorophenyl)piperazin-1-yl)methyl)phenol], the inhibition at 10 µM was 98%. For `CCCCn1nnnc1C(c1cccc(O)c1)N1CCN(c2ccncc2)CC1` (centres unmarked) [Compound 27, 3-((1-butyl-1H-tetrazol-5-yl)(4-(pyridin-4-yl)piperazin-1-yl)methyl)phenol], the inhibition at 10 µM is 1.04%. In the case of `CCCCn1nnnc1C(c1cc2ccccc2o1)N1CCN(c2c(Cl)cncc2Cl)CC1` (centres unmarked) [Compound 28, 1-(benzofuran-2-yl(1-butyl-1H-tetrazol-5-yl)methyl)-4-(3,5-dichloropyridin-4-yl)piperazine], the inhibition at 10 µM was 96.8%. The same measure, in the same setting: the same measure for `CC(C)(C)n1nnnc1C(c1ccnc2ccccc12)N1CCN(c2c(Cl)cncc2Cl)CC1` (centres unmarked) [Compound 29, 4-((1-(tert-butyl)-1H-tetrazol-5-yl)(4-(3,5-dichloropyridin-4-yl)piperazin-1-yl)methyl)quinoline]: 108%; for `CCCCn1nnnc1C(c1ccncc1)N1CCN(c2c(Cl)cncc2Cl)CC1` (centres unmarked) [Compound 30, 1-((1-butyl-1H-tetrazol-5-yl)(pyridin-4-yl)methyl)-4-(3,5-dichloropyridin-4-yl)piperazine]: 100%.

Turning to `CC(C)(C)n1nnnc1C(c1ccncc1)N1CCN(c2c(Cl)cncc2Cl)CC1` (centres unmarked) [Compound 31, 1-((1-(tert-butyl)-1H-tetrazol-5-yl)(pyridin-4-yl)methyl)-4-(3,5-dichloropyridin-4-yl)piperazine], the inhibition at 10 µM was 91.4%.

For `CCCCn1nnnc1C(c1ccc(OC)cc1)N1CCN(c2c(Cl)cncc2Cl)CC1` (centres unmarked) [Compound 32, 1-((1-butyl-1H-tetrazol-5-yl)(4-methoxyphenyl)methyl)-4-(3,5-dichloropyridin-4-yl)piperazine], the inhibition at 10 µM stood at 91.6%.

`COc1ccc(C(c2nnnn2C(C)(C)C)N2CCN(c3c(Cl)cncc3Cl)CC2)cc1` (centres unmarked) [Compound 33, 1-((1-(tert-butyl)-1H-tetrazol-5-yl)(4-methoxyphenyl)methyl)-4-(3,5-dichloropyridin-4-yl)piperazine]: the inhibition at 10 µM came to 97.5%. On the same count and under the same terms, under `CCCCn1nnnc1C(c1ccc(C#N)cc1)N1CCN(c2c(Cl)cncc2Cl)CC1` (centres unmarked) [Compound 34, 4-((1-butyl-1H-tetrazol-5-yl)(4-(3,5-dichloropyridin-4-yl)piperazin-1-yl)methyl)benzonitrile] stands 99.8%; under `CC(C)(C)n1nnnc1C(c1ccc(C#N)cc1)N1CCN(c2c(Cl)cncc2Cl)CC1` (centres unmarked) [Compound 35, 4-((1-(tert-butyl)-1H-tetrazol-5-yl)(4-(3,5-dichloropyridin-4-yl)piperazin-1-yl)methyl)benzonitrile], 106%. Take `CCCCn1nnnc1C(c1ccc(F)cc1)N1CCN(c2c(Cl)cncc2Cl)CC1` (centres unmarked) [Compound 36, 1-((1-butyl-1H-tetrazol-5-yl)(4-fluorophenyl)methyl)-4-(3,5-dichloropyridin-4-yl)piperazine]: the inhibition at 10 µM amounted to 102%. For the molecule `CC(C)(C)n1nnnc1C(c1ccc(F)cc1)N1CCN(c2c(Cl)cncc2Cl)CC1` (centres unmarked) [Compound 37, 1-((1-(tert-butyl)-1H-tetrazol-5-yl)(4-fluorophenyl)methyl)-4-(3,5-dichloropyridin-4-yl)piperazine], the inhibition at 10 µM was found to be 111%. On the same count and under the same terms, the same measure for `CCCCn1nnnc1C(c1cccc2ccccc12)N1CCN(c2c(Cl)cncc2Cl)CC1` (centres unmarked) [Compound 38, 1-((1-butyl-1H-tetrazol-5-yl)(naphthalen-1-yl)methyl)-4-(3,5-dichloropyridin-4-yl)piperazine]: 97.6%. As for `CC(C)(C)n1nnnc1C(c1cccc2ccccc12)N1CCN(c2c(Cl)cncc2Cl)CC1` (centres unmarked) [Compound 39, 1-((1-(tert-butyl)-1H-tetrazol-5-yl)(naphthalen-1-yl)methyl)-4-(3,5-dichloropyridin-4-yl)piperazine], the inhibition at 10 µM came out at 107%.

The same assay, now with this note: Table II.
Regarding `CCCCn1nnnc1C(c1cccc(O)c1)N1CCN(c2c(Cl)cncc2Cl)CC1` (centres unmarked) [Compound 1, 3-((1-butyl-1H-tetrazol-5-yl)(4-(3,5-dichloropyridin-4-yl)piperazin-1-yl)methyl)phenol], the IC50 stood at 45.9 nM.

Consider `CC(C)(C)n1nnnc1C(c1cc2ccccc2o1)N1CCN(c2c(Cl)cncc2Cl)CC1` (centres unmarked) [Compound 2, 1-(benzofuran-2-yl(1-(tert-butyl)-1H-tetrazol-5-yl)methyl)-4-(3,5-dichloropyridin-4-yl)piperazine], for which the IC50 was 557 nM. Turning to `CCCCn1nnnc1C(c1ccnc2ccccc12)N1CCN(c2c(Cl)cncc2Cl)CC1` (centres unmarked) [Compound 3, 4-((1-butyl-1H-tetrazol-5-yl)(4-(3,5-dichloropyridin-4-yl)piperazin-1-yl)methyl)quinoline], inhibition was half-maximal at 523 nM (IC50). In turn, `CCCCn1nnnc1CN1CCN(c2c(Cl)cncc2Cl)CC1` [Compound 5, 1-((1-butyl-1H-tetrazol-5-yl)methyl)-4-(3,5-dichloropyridin-4-yl)piperazine] showed an IC50 of 1710 nM. On to `Oc1cccc(C(c2nnnn2Cc2ccccc2)N2CCN(c3c(Cl)cncc3Cl)CC2)c1` (centres unmarked) [Compound 19, 3-((1-benzyl-1H-tetrazol-5-yl)(4-(3,5-dichloropyridin-4-yl)piperazin-1-yl)methyl)phenol], for which half-maximal inhibition (IC50) required 134 nM. Regarding `CCCCn1nnnc1C(c1cccc(O)c1)N1CCN(c2c(Cl)cccc2Cl)CC1` (centres unmarked) [Compound 25, 3-((1-butyl-1H-tetrazol-5-yl)(4-(2,6-dichlorophenyl)piperazin-1-yl)methyl)phenol], the IC50 came to 1600 nM.

One may read the inhibition as the relative decrease from the control value, in per cent. As usually defined, the IC50 is the concentration that inhibits the measured activity by half. A high value points to weaker potency in that assay.
